Assay results as given in ChEMBL document CHEMBL1201862, “PubChem BioAssay data set” (2004).
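Cultured in 96-well plates, cells were exposed to test compound for 48 hours across five concentrations. Abbreviation: GI50, concentration required for 50% inhibition of growth.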 The source made the active and inactive calls. Cut-off read from the data, not from the text of the source: active = GI50 up to about 1.1 µM and inactive = higher.

Key:
Assay in all cases: NCI-60 cell line screen, 48 h
TK-10 = system: TK-10
NCI/ADR-RES = system: NCI/ADR-RES
SK-OV-3 = system: SK-OV-3
OVCAR-8 = system: OVCAR-8
CCRF-CEM = system: CCRF-CEM
SNB-19 = system: SNB-19
SK-MEL-2 = system: SK-MEL-2
OVCAR-5 = system: OVCAR-5
SK-MEL-5 = system: SK-MEL-5
HCT-15 = system: HCT-15
OVCAR-4 = system: OVCAR-4
Hs-578T = system: Hs-578T
DU-145 = system: DU-145
RPMI-8226 = system: RPMI-8226
HCT-116 = system: HCT-116
UACC-257 = system: UACC-257
CAKI-1 = system: CAKI-1
SK-MEL-28 = system: SK-MEL-28
U-251 = system: U-251
RXF 393 = system: RXF 393

| SMILES | GI50 (TK-10) | GI50 (NCI/ADR-RES) | GI50 (SK-OV-3) | GI50 (OVCAR-8) | GI50 (CCRF-CEM) | GI50 (SNB-19) | GI50 (SK-MEL-2) | GI50 (OVCAR-5) | GI50 (SK-MEL-5) | GI50 (HCT-15) [µM] | GI50 (OVCAR-4) | GI50 (Hs-578T) | GI50 (DU-145) | GI50 (RPMI-8226) | GI50 (HCT-116) | GI50 (UACC-257) | GI50 (CAKI-1) | GI50 (SK-MEL-28) | GI50 (U-251) | GI50 (RXF 393) |
| --- | --- | --- | --- | --- | --- | --- | --- | --- | --- | --- | --- | --- | --- | --- | --- | --- | --- | --- | --- | --- |
| CCN(CC)CCn1c2ccccc2c(=O)c2c(O)ccc(O)c21 | 31.6 µM (inactive) | 19.6 µM (inactive) | 69.8 µM (inactive) | 19.6 µM (inactive) | 11 µM (inactive) | 58.9 µM (inactive) | 33.4 µM (inactive) | 55.7 µM (inactive) | 21.3 µM (inactive) | 33.8 | 17.3 µM (inactive) | 22.1 µM (inactive) | > 59.4 µM (inactive) | 19.9 µM (inactive) | 31.1 µM (inactive) | 36.9 µM (inactive) | 35.5 µM (inactive) | 33.2 µM (inactive) | 42.1 µM (inactive) | 19 µM (inactive) |
| O=C1C=CC(=O)c2c1ccc1c3ccccc3n(-c3ccccc3[N+](=O)[O-])c21 | 2.44 µM (inactive) | 5.05 µM (inactive) | 17 µM (inactive) | 2.03 µM (inactive) | 0.181 µM (active) | 9.84 µM (inactive) | 13.3 µM (inactive) | 17.3 µM (inactive) | 6.89 µM (inactive) | 2.96 | 2.59 µM (inactive) | 10.7 µM (inactive) | 4.68 µM (inactive) | 0.71 µM (active) | 2.79 µM (inactive) | 3.56 µM (inactive) | 1.47 µM (inactive) | 8.55 µM (inactive) | 4.59 µM (inactive) | 1.62 µM (inactive) |
| CC1OC(OC2C(O)COC(OC3C(C)OC(OC4C(OC(=O)[C@]56CCC(C)(C)C[C@@H]5C5=CCC7[C@@]8(C)C[C@H](O)[C@H](OC9OC(CO)C(O)C(O)C9O)[C@@](C)(CO)[C@@H]8CC[C@@]7(C)[C@]5(C)CC6)OCC(O)C4O)C(O)C3OC3OCC(O)C(O)C3O)C2O)C(O)C(O)C1O (stereo not given in full) | 17.3 µM (inactive) | 26.2 µM (inactive) | 18.6 µM (inactive) | 19.5 µM (inactive) | 15.6 µM (inactive) | 19.1 µM (inactive) | 21.4 µM (inactive) | 14.4 µM (inactive) | 19.5 µM (inactive) | 28.8 | 20.1 µM (inactive) | 40.9 µM (inactive) | 18.4 µM (inactive) | 39 µM (inactive) | 19.9 µM (inactive) | 14.9 µM (inactive) | 10.7 µM (inactive) | 11.2 µM (inactive) | 20 µM (inactive) | 15.9 µM (inactive) |
| CCOC(=O)/C(C#N)=C/c1ccc2c(c1)CC1(C2)Cc2cc(CC)c(C(C)O)cc2C1 (stereo not given) | 25.5 µM (inactive) | 8.77 µM (inactive) | 15.4 µM (inactive) | 15 µM (inactive) | 4.61 µM (inactive) | 15.1 µM (inactive) | 7.21 µM (inactive) | 33 µM (inactive) | 4.78 µM (inactive) | 5.24 | 9.59 µM (inactive) | 10 µM (inactive) | 19.2 µM (inactive) | 6.84 µM (inactive) | 4.27 µM (inactive) | 15.8 µM (inactive) | 57.9 µM (inactive) | 12.8 µM (inactive) | 6.35 µM (inactive) | 6.79 µM (inactive) |
| C#CCn1c(=O)ccn(/C(=C\C(=O)OCC)C(=O)OCC)c1=O | 1.81 µM (inactive) | 7.64 µM (inactive) | 33 µM (inactive) | 2.31 µM (inactive) | 0.381 µM (active) | 19.9 µM (inactive) | 16.4 µM (inactive) | 13.5 µM (inactive) | 20.5 µM (inactive) | 1.51 | 2.85 µM (inactive) | 27.7 µM (inactive) | 15.6 µM (inactive) | 2.73 µM (inactive) | 5.53 µM (inactive) | 15.3 µM (inactive) | 1.03 µM (active) | 11.7 µM (inactive) | 14.3 µM (inactive) | 2.08 µM (inactive) |
